# Experimental data taken from patent publication US20050042236A1, “Plant extract active as an immunostimulating agent” (priority 2001, published 2005).
# System: EA-specific antibodies
# Assay: Production of EA-specific antibodies in mice (Table 2)
# Type: in vivo
# Details: EA 50 μg, BaBb/c mice, preparation 20 μg intraperitoneal
# Experimental: Erythrocytes of defibrinated sheep blood were washed three times by centrifugation (1000 rpm, 10 m)in 50-fold volume of Hanks' solution, and were then re-suspended in the same solution. Mice were immunised intraperitoneally with 2 ml SE, 200 μg BSA or 50 μg EA. The latter two antigens were injected twice, with a 2-4 week interval between immunisations.
# The appropriate amount of APG was dissolved in Hank's solution or in physiological saline, 2-3 hours prior to use. APG was administered to mice in doses of between 1 and 1000 μg. When. mice were immunised with BSA, EA or SE, APG was administered simultaneously with the antigen.
# The intensity of the immune response in mice which were immunised with SE was determined according to the number of antibody-forming cells (AFC), detected in the spleen cell suspensions using the method of Jerne and Nordin (1963). AFC were detected 4-5 days following immunisation. Presence of antibodies specific to EA or BSA in blood serum of mice was detected using a solid-phase enzyme-immunoassay (EIA). Isotype of antibodies specific to BSA was determined by EIA using secondary rabbit antibodies specific to mouse IgM, IgG1, IgG2a, IgG2b or IgG3.
# The lipopeptide was Pam3Cys-Ser-Lys4 a well-known immunoadjuvant.
substance,measurement,value
Pam3Cys-Ser-Lys4 [lipopeptide],Serum Titer of EA-specific Antibodies,"20,000"
